Melting point data for 1 compound are collected here from patent publication US6649634B2, “Substituted N-( indole-2-carbonyl-) amides and derivatives as glycogen phosphorylase inhibitors” (Pfizer, Inc., priority 1995, dated 2003).

For orientation: melting point means the temperature, or range, at which the solid turns liquid. Compound `CON(C)C(=O)C(O)CNC(=O)c1cc2cc(Cl)ccc2[nH]1` (racemic) [Example 30, 5-Chloro-1H-indole-2-carboxylic acid [(2RS)-hydroxy-2-(methoxy-methyl-carbamoyl)-ethyl]-amide] returned a melting point of 192 to 192.5 °C.
